Assays:
[1] = Physical Stability Study (proton NMR after storage exposed to air); type: physicochemical; conditions: room temperature
Text: FIG. 1: […] NMR spectrum of magnesium bis-lysinate bis-EPA taken on the day the compound was synthesized (upper trace) and 60 days later (lower trace) with the compound having been exposed to air at room temperature for the entire 60-day period.
Since the compounds of Formula IA and IB, and the compositions comprising same or mixtures of same, described herein are solids (not oils) and they are very stable against oxidative degradation of the fatty acid component, particularly when compared to the free fatty acid or fatty acid ester forms of the fatty acids, which are highly susceptible to oxidative degradation in their liquid forms and consequently tend to degrade when exposed to air or humidity. […] This is evidenced, for example by no significant change in physical properties, such as flow characteristics, or in chemical properties, as measured by NMR spectroscopy, following days of storage in an open vial at room temperature and standard humidity, for example following from about 7 to 14 days or up to 30, up to 60, or up to 90 days of storage.
The compounds of the invention are remarkably stable compared to omega-3 polyunsaturated free fatty acids, which typically show evidence of oxidative degradation with hours of exposure to atmospheric oxygen. […]

[2] = design: species or system rats; conditions: rat, in vivo, po
Text: The results of a single dose, oral pharmacokinetic study in rats for a compound of Formula III (designated TP-252, Mg-Lys2-EPA2) are shown in Table 3 below. One of the parameters shown in […] is the area under the curve (AUC), which is the integral of a plot of concentration of drug in blood plasma against time. The AUC is proportional to the total amount of the active pharmaceutical agent (API) that reaches the blood circulation. In this example, the API (or analyte) is EPA. AUC and Cmax are given for the compound of Formula III, EPA free fatty acid (EPA FFA), and EPA ethyl ester (EPA EE). EPA ethyl ester is the FDA-approved form of EPA.

chemically stable (no evidence of oxidation or degradation by proton NMR) [1]: at least 60 days | EPA delivered to the blood plasma compared with equivalent doses of EPA free fatty acid or EPA ethyl ester [2]: significantly more EPA
SMILES: CC/C=C\C/C=C\C/C=C\C/C=C\C/C=C\CCCC(=O)O.CC/C=C\C/C=C\C/C=C\C/C=C\C/C=C\CCCC(=O)O.NCCCC[C@H](N)C(=O)[O-].NCCCC[C@H](N)C(=O)[O-].[Mg+2] [TP-252, Magnesium Bis-Lysinate Bis-EPA Dihydrate]

Reference: patent US9999626B2, “Mineral amino-acid complexes of active agents” (Thetis Pharmaceuticals LLC, priority 2014, dated 2018)
